Test results reported in patent US8772500B2, “TRPV3 modulators” (AbbVie Inc., priority 2011, dated 2014).
pIC50: −log10 of the molar value.

Key:
[1] = In vitro rat microsomal stability assay; type: in vitro ADME, rat (Sprague-Dawley); settings: Sprague-Dawley, rat, 0.5 h, 0.5 μM, pH 7.4
Procedure, shortened: (§1)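 Liver microsomes: Sprague-Dawley rat for rat assay, human for human assay; 37 °C; NADPH cofactor, also spiked into time-zero plates.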

[2] = In vitro human microsomal stability assay; type: in vitro ADME; settings: human, 0.5 h, 0.5 μM, pH 7.4
Procedure, shortened: as §1

human TRPV3 = biological target: T1, human TRPV3 (Homo sapiens, UniProt Q8NET8); assay: In vitro antagonism of recombinant human TRPV3 activation (FLIPR Tetra calcium assay, 2-APB as agonist); type: cell-based; settings: HEK293 cells stably expressing human TRPV3; 2-APB 80 μM; range class; read-out: IC50 (reported range)
T1 construct: expressed in transfected cells
T1 sequence (Q8NET8 1-790): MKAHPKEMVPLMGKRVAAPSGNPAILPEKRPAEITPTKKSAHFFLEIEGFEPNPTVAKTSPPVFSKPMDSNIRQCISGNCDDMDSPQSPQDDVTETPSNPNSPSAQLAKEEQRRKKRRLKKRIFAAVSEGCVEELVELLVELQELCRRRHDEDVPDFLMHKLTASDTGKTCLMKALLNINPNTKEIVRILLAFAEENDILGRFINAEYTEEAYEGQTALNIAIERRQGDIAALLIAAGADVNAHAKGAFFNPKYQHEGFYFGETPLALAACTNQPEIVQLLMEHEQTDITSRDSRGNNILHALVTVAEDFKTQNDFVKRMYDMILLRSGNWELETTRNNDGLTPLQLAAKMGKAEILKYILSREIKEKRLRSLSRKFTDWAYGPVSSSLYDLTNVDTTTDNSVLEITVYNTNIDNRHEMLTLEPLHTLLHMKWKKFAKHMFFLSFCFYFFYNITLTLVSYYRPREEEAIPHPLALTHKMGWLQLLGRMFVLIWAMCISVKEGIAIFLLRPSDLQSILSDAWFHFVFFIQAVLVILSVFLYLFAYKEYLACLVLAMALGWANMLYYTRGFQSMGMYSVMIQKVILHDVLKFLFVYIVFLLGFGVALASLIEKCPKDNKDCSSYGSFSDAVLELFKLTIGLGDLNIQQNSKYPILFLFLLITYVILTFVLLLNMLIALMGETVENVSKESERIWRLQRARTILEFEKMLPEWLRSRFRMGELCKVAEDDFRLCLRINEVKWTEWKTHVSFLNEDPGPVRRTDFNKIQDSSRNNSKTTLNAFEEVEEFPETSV
Procedure, shortened: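 Readout is FLIPR fluorescence, max minus min as percent of uninhibited 2-APB response, giving IC50 (usually mean of ≥2 runs). Stable human TRPV3 HEK293 cells, Calcium-4 dye-loaded, got test compound then, three minutes later, 80 μM 2-APB (EC80); run length 10 min.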

Row | SMILES | RAT MICROSOMAL STABILITY (% REMAINING AFTER 30 MINUTES) [1] [%] | HUMAN MICROSOMAL STABILITY (% REMAINING AFTER 30 MINUTES) [2] [%] | pIC50 (human TRPV3)
1 | O[C@H](c1ncccn1)C1(c2ccc(Cl)c(Cl)c2)CCC1 [Example 39, (S)-[1-(3,4-dichlorophenyl)cyclobutyl](pyrimidin-2-yl)methanol] | 11 | 51 | 6.00 to 6.30
2 | O[C@@H](c1ncccn1)C1(c2ccc(Cl)c(Cl)c2)CCC1 [Example 40, (R)-[1-(3,4-dichlorophenyl)cyclobutyl](pyrimidin-2-yl)methanol] | 5.6 | 68 | 4.70 to 5.29
3 | Cc1ccccc1C(C)C1(C(O)c2ccccn2)CCC1 (stereo not drawn) [Example 45, {1-[1-(2-methylphenyl)ethyl]cyclobutyl}(pyridin-2-yl)methanol] | 0.02 | 0.03 | 5.30 to 5.96
4 | CC(c1ccc(F)cc1)C1(C(O)c2ccccn2)CCC1 (stereo not drawn) [Example 46, {1-[1-(4-fluorophenyl)ethyl]cyclobutyl}(pyridin-2-yl)methanol] | 0.23 | 11 | 4.70 to 5.29
5 | CC(c1ccc(Cl)cc1)C1(C(O)c2ccccn2)CCC1 (stereo not drawn) [Example 49, {1-[1-(4-chlorophenyl)ethyl]cyclobutyl}(pyridin-2-yl)methanol] | 0.13 | 15 | 5.30 to 5.96
6 | CC(c1ccccc1Cl)C1(C(O)c2ccccn2)CCC1 (stereo not drawn) [Example 50, {1-[1-(2-chlorophenyl)ethyl]cyclobutyl}(pyridin-2-yl)methanol] | 0.18 | 0.08 | 5.30 to 5.96
7 | Cc1ccc(CC2(C(O)c3ccccn3)CCC2)cc1 (stereo not drawn) [Example 52, [1-(4-methylbenzyl)cyclobutyl](pyridin-2-yl)methanol] | 0.05 | 1.7 | 5.30 to 5.96
8 | OC(c1ccccn1)C1(C2CCc3ccccc32)CCC1 (stereo not drawn) [Example 55, [1-(2,3-dihydro-1H-inden-1-yl)cyclobutyl](pyridin-2-yl)methanol] | 0.29 | 1.6 | 4.70 to 5.29
9 | OC(c1ccccn1)C1(C2CCCc3ccccc32)CCC1 (stereo not drawn) [Example 56, pyridin-2-yl[1-(1,2,3,4-tetrahydronaphthalen-1-yl)cyclobutyl]methanol] | 1.1 | 0.42 | 5.30 to 5.96
10 | OC(c1ccccn1)C1(C2CCOc3ccccc32)CCC1 (stereo not drawn) [Example 57, [1-(3,4-dihydro-2H-chromen-4-yl)cyclobutyl](pyridin-2-yl)methanol] | 10 | 16 | 4.70 to 5.29
11 | OC(c1ccccn1)C1(C(c2ccccc2)C(F)(F)F)CCC1 (stereo not drawn) [Example 58, pyridin-2-yl[1-(2,2,2-trifluoro-1-phenylethyl)cyclobutyl]methanol] | 33 | 36 | 5.30 to 5.96
12 | OC(c1ccccn1)C1(c2ccc(Cl)c(Cl)c2)CCOCC1 (stereo not drawn) [Example 59, [4-(3,4-dichlorophenyl)tetrahydro-2H-pyran-4-yl](pyridin-2-yl)methanol] | 12 | 45 | 5.30 to 5.96
13 | OC(c1ccccn1)C1(c2cccc(OC(F)(F)F)c2)CCOCC1 (stereo not drawn) [Example 66, pyridin-2-yl{4-[3-(trifluoromethoxy)phenyl]tetrahydro-2H-pyran-4-yl}-methanol] | 23 | 31 | 5.30 to 5.96
14 | OC(c1ccccn1)C1(c2ccc(OC(F)(F)F)cc2)CCOCC1 (stereo not drawn) [Example 67, pyridin-2-yl{4-[4-(trifluoromethoxy)phenyl]tetrahydro-2H-pyran-4-yl}-methanol] | 47 | 58 | 5.30 to 5.96
15 | OC(CC1(c2cccc(C(F)(F)F)c2)CCC1)c1ccccn1 (stereo not drawn) [Example 74, 1-(pyridin-2-yl)-2-{1-[3-(trifluoromethyl)phenyl]cyclobutyl}ethanol] | 0.45 | 6.8 | 6.30 to 7.30
16 | OC(CC1(c2ccc(C(F)(F)F)cc2)CCC1)c1ccccn1 (stereo not drawn) [Example 75, 1-(pyridin-2-yl)-2-{1-[4-(trifluoromethyl)phenyl]cyclobutyl}ethanol] | 0.74 | 44 | 6.00 to 6.30
17 | OC(CC1(c2ccc(OC(F)(F)F)cc2)CCC1)c1ccccn1 (stereo not drawn) [Example 76, 1-(pyridin-2-yl)-2-{1-[4-(trifluoromethoxy)phenyl]cyclobutyl}ethanol] | 0.47 | 39 | 6.00 to 6.30
18 | OC(CC1(c2cccc(OC(F)(F)F)c2)CCC1)c1ccccn1 (stereo not drawn) [Example 77, 1-(pyridin-2-yl)-2-{1-[3-(trifluoromethoxy)phenyl]cyclobutyl}ethanol] | 0.94 | 11 | 6.00 to 6.30
19 | OC(c1ccccn1)C1(c2ccc(Cl)c(Cl)c2)CC(F)(F)C1 (stereo not drawn) [Example 82, [1-(3,4-dichlorophenyl)-3,3-difluorocyclobutyl](pyridin-2-yl)methanol] | 16 | 35 | 6.00 to 6.30
20 | OC(c1ccccn1)C1(c2ccc(C(F)(F)F)nc2)CCC1 (stereo not drawn) [Example 85, pyridin-2-yl{1-[6-(trifluoromethyl)pyridin-3-yl]cyclobutyl}methanol] | 76 | 82 | 4.70 to 5.29
21 | OC(c1ccccn1)C1(c2ccc(C(F)(F)F)cc2)CCCO1 (stereo not drawn) [Example 88, (anti)-pyridin-2-yl{2-[4-(trifluoromethyl)phenyl]tetrahydrofuran-2-yl}-methanol] | 7.0 | 38 | 6.30 to 7.30
22 | OC(c1ccccn1)C1(c2ccc(C(F)(F)F)cc2)CCCO1 (stereo not drawn) [Example 89, (syn)-pyridin-2-yl{2-[4-(trifluoromethyl)phenyl]tetrahydrofuran-2-yl}-methanol] | 4.3 | 70 | 5.30 to 5.96
23 | Cc1ccccc1C1(C(O)c2ccccn2)CCCO1 (stereo not drawn) [Example 90, [2-(2-methylphenyl)tetrahydrofuran-2-yl](pyridin-2-yl)methanol] | <0.01 | 35 | 6.30 to 7.30
24 | Cc1cccc(C2(C(O)c3ccccn3)CCCO2)c1 (stereo not drawn) [Example 91, [2-(3-methylphenyl)tetrahydrofuran-2-yl](pyridin-2-yl)methanol] | 1.0 | 46 | 6.30 to 7.30
25 | OC(c1ccccn1)C1(c2cccc(OC(F)(F)F)c2)CCCO1 (stereo not drawn) [Example 92, (anti)-pyridin-2-yl{2-[3-(trifluoromethoxy)phenyl]tetrahydrofuran-2-yl}-methanol] | 0.23 | 2.7 | 6.30 to 7.30
26 | OC(c1ccccn1)C1(c2cccc(OC(F)(F)F)c2)CCCO1 (stereo not drawn) [Example 93, (syn)-pyridin-2-yl{2-[3-(trifluoromethoxy)phenyl]tetrahydrofuran-2-yl}-methanol] | 0.33 | 12 | 6.00 to 6.30
27 | OC(c1ccccn1)C1(c2ccc(OC(F)(F)F)cc2)CCCO1 (stereo not drawn) [Example 94, (anti)-pyridin-2-yl{2-[4-(trifluoromethoxy)phenyl]tetrahydrofuran-2-yl}-methanol] | 3.8 | 55 | 6.30 to 7.30
